Values of other authors, collected in patent US9375525B2, “Modular extracorporeal systems and methods for treating blood-borne diseases” (Somerset Group Enterprises, Inc., priority 2012, dated 2016).
Read-outs that look alike come from different tables or passages of the source.

What was measured:
pathogens = details: bactericidal or static
Listeria = details: carbonation volume of about 2, about 35° C., pressure up to about 350 MPa, about 300 seconds
S. aureus = details: basic conditions versus slightly acidic conditions

## NCC[C@H](O)C(=O)N[C@@H]1C[C@H](N)[C@@H](O[C@H]2O[C@H](CN)[C@@H](O)[C@H](O)[C@H]2O)[C@H](O)[C@H]1O[C@H]1O[C@H](CO)[C@@H](O)[C@H](N)[C@H]1O [Amikacin]
pathogens
  activity: bactericidal
In vivo
  Issues with Respect to In vivo Toxicity or Side Effects: Nephrotoxicity, ototoxicity

## O=C=O [CO2, Carbon dioxide]
Listeria
  inactivation of Listeria: enhanced the inactivation

## O=C(O)c1cn(C2CC2)c2cc(N3CCNCC3)c(F)cc2c1=O [Ciprofloxalin]
pathogens
  activity: bactericidal

## CCCCCCCCCC(=O)N[C@@H](Cc1c[nH]c2ccccc12)C(=O)N[C@H](CC(N)=O)C(=O)N[C@@H](CC(=O)O)C(=O)N[C@@H]1C(=O)NCC(=O)N[C@@H](CCCN)C(=O)N[C@@H](CC(=O)O)C(=O)N[C@H](C)C(=O)N[C@@H](CC(=O)O)C(=O)NCC(=O)N[C@H](CO)C(=O)N[C@@H]([C@H](C)CC(=O)O)C(=O)N[C@@H](CC(=O)c2ccccc2N)C(=O)O[C@@H]1C [Daptomycin]
pathogens
  activity: bactericidal

## CN(C)c1cc(NC(=O)CNC(C)(C)C)c(O)c2c1C[C@H]1C[C@H]3[C@H](N(C)C)C(O)=C(C(N)=O)C(=O)[C@@]3(O)C(O)=C1C2=O [Tigecycline]
pathogens
  activity: static

## NC[C@H]1O[C@H](O[C@H]2[C@H](O)[C@@H](O[C@H]3O[C@H](CO)[C@@H](O)[C@H](N)[C@H]3O)[C@H](N)C[C@@H]2N)[C@H](N)C[C@@H]1O [Tobramycin]
pathogens
  activity: bactericidal
In vivo
  Issues with Respect to In vivo Toxicity or Side Effects: Nephrotoxicity, ototoxicity

## N[C@@H]1[C@H]2CN(c3nc4c(cc3F)c(=O)c(C(=O)O)cn4-c3ccc(F)cc3F)C[C@@H]12 [Trovafloxacin]
pathogens
  activity: bactericidal
In vivo
  Issues with Respect to In vivo Toxicity or Side Effects: Histamine release, Idiosyncratic

## CN[C@H](CC(C)C)C(=O)N[C@H]1C(=O)N[C@@H](CC(N)=O)C(=O)N[C@H]2C(=O)N[C@H]3C(=O)N[C@H](C(=O)N[C@H](C(=O)O)c4cc(O)cc(O)c4-c4cc3ccc4O)[C@H](O)c3ccc(c(Cl)c3)Oc3cc2cc(c3O[C@@H]2O[C@H](CO)[C@@H](O)[C@H](O)[C@H]2O[C@H]2C[C@](C)(N)[C@H](O)[C@H](C)O2)Oc2ccc(cc2Cl)[C@H]1O [vancomycin]
S. aureus
  killing S. aureus: under basic conditions better than under slightly acidic conditions

## Colistin
pathogens
  activity: bactericidal
In vivo use
  Issues with Respect to In vivo Toxicity or Side Effects: Only used as last resort antibiotics

## Gentamycin
pathogens
  activity: bactericidal
In vivo use
  Issues with Respect to In vivo Toxicity or Side Effects: Nephrotoxicity, ototoxicity

## Polymixin B
pathogens
  activity: bactericidal
In vivo
  Issues with Respect to In vivo Toxicity or Side Effects: due to renal and neurotoxicity
